Here are results for two compounds from article PMC6271011, “Synthesis, Leishmanicidal and Cytotoxic Activity of Triclosan-Chalcone, Triclosan-Chromone and Triclosan-Coumarin Hybrids” (Molecules, 2014).

One experiment relates to L. major. More on the design: method as in PMID 15558191. The settings on record: against L. major; read-out: 50% inhibitory concentration (IC50), growth inhibition; cited from earlier work.
The test system of experiment [1] is intracellular amastigotes of L. (V) panamensis. As to the kind of experiment: Leishmanicidal activity against intracellular amastigotes (GFP, flow cytometry, 72 h). Type of experiment: cell-based, Leishmania (Viannia) panamensis. Particulars: read-out: Leishmanicidal activity % Inhibition. (In flow cytometry, cells or beads pass a laser one at a time.)
Experiment [2] has the same test system. The description is as above. It is filed as cell-based, Leishmania (Viannia) panamensis. As to the method: The leishmanicidal activity of compounds was evaluated on intracellular amastigotes of L. panamensis transfected with the green fluorescent protein gene (MHOM/CO/87/UA140pIR-GFP). Effect of each compound was determined according to the inhibition of the infection evidenced by both decrease of the infected cells and decrease of intracellular parasite load. Briefly, U-937 human cells at a concentration of 3 × 10^5 cells/mL in RPMI 1640 and 0.1 μg/mL of PMA (phorbol-12-myristate-13-acetate) were infected with promastigotes in stationary phase growth in a 15:1 parasites per cell ratio and incubated at 34 °C and 5% CO2 for 3 h. Cells were washed two times with phosphate buffer solution (PBS) to eliminate not internalized parasites. Fresh RPMI 1640 1 mL was added and cells were incubated during 24 h to guarantee multiplication of intracellular parasites.
After 24 h of infection, the culture medium was replaced by fresh culture medium containing each compound at concentrations of 20 μg/mL. After 72 h, the inhibition of the infection progress was determined. Cells were removed from the bottom plate with a trypsin/EDTA (250 mg) solution. Recovered cells were centrifuged at 1100 rpm during 10 min at 4 °C, the supernatant was discarded and cells were washed with 1 mL of cold PBS and centrifuged at 1100 rpm during 10 min at 4 °C. Supernatant was discarded and cells were suspended in 500 μL of PBS and analyzed by flow cytometry (FC 500MPL, Cytomics, Brea, CA, USA) counting 20.000 events. All determinations for each compound and standards were carried out in triplicate, in two isolated experiments. Activity of tested compounds was carried out in parallel with infection progress in culture medium alone and in culture medium with amphotericin B 0.05 μg/mL and meglumine antimoniate (10.0 μg/mL) as control drugs. […] The infected cells were exposed against each concentration of synthesized compounds during 72 h, then, cells were removed and tested by flow cytometry as described before.
Antileishmanial activity was determined according to percentage of infected cells and parasite load obtained for each experimental condition by the cytometer. Percentage of infected cells was determined as the number of positive events by double fluorescence (green for parasites and red for cells) using dotplot analysis. On the other hand, the parasitic load was determined by analysis of mean fluorescence intensity (MFI).
The parasitemia inhibition was calculated by Equation (2), where the MFI of control, corresponds to 100% of parasitemia. In turn, inhibition percentage corresponds to 100% Parasitemia.
The selectivity index (SI), was calculated by dividing the cytotoxic activity and the leishmanicidal activity using the following formula: SI = CL50/CE50.

The test system of experiment [3] is axenic and intracellular amastigotes of Leishmania panamensis. More on the design: method as in doi:10.1007/s00044-011-9886-8. The settings on record: cited from earlier work.

Broadly, the inhibition is the percentage by which the read-out fell short of the control. What is called EC50 is the midpoint of the concentration-response curve.

Several values for one entry are separate records, joined by “and”; a condition that tells them apart may be missing. Identical values can stand only once. Bounds are passed on as bounds.

Regarding `CC(C)=CCC/C(C)=C/COc1ccc2ccc(=O)oc2c1` [Aurapten, 7-geranyloxycoumarin], the IC50 in the experiment on L. major is 30 µM.
On to `Oc1cc(Cl)ccc1Oc1ccc(Cl)cc1Cl` [Triclosan], for which, in experiment [1], the inhibition at 20 µg/mL came to 61.8 ± 5.5%. In addition, the “SI (Selectivity Index = LC50/EC50)” value in experiment [2] (LC50 U-937 / EC50 intracellular amastigotes) amounted to 1.3. The concentration giving a half-maximal response (EC50) in experiment [2] (U-937, 72 h, read-out: Leishmanicidal activity EC50) was 18.3 µg/mL and 63.2 µM. For the same compound, the “effective concentration (EC50)” value in experiment [3] is less than 24 µg/mL.
